Tests used:
dopamine transporter = molecular target: T1, dopamine transporter (Rattus norvegicus, UniProt P23977); assay: Dopamine transporter binding assay ([3H]GBR12935, rat striatal membranes); conditions: 10 μM test compound, radioligand [3H]GBR12935 1.0 nM, 25° C., 45 minutes
T1 construct: The receptor source was rat striatal membranes; from tissue; host or cells: striatum of male SD rats (Orient Korea), membrane preparation
Experimental: Rats (SD-rat, Orient Korea, male, 200-250 g) were sacrificed by decapitation. The striata were removed immediately and then stored at −80° C. until used. On the day of the manipulation, the striata were thawed and suspended in 20 volumes of buffer containing 50 mM Tris-HCl and 120 mM NaCl (pH 7.7). The suspension then was centrifuged at 17,700 rpm for 20 minutes. The pellet was resuspended in 20 volumes of the buffer and centrifuged at 17,700 rpm for 20 minutes. This procedure was repeated once more. The pellet obtained was resuspended in a few ml of the buffer and then homogenized. The concentration of the receptor source was determined by Lowry et al., 1951, J. Biol. Chem. 193:265-275.
Dopamine Transporter Assay Protocol
The dopamine reuptake transporter binding assay was performed according to the methods described in Madras et al., 1989, Mol. Pharmacol. 36(4):518-524, and Javitch et al., 1984, Mol. Pharmacol. 26(1):35-44. The receptor source was rat striatal membranes; the radioligand was GBR12935 [prolyene-2,3-^3H] […]

mice = assay: Locomotor activity test (LMA); assay type: in vivo; conditions: ip, LMA measured 30 minutes after dosing, counts for 10 minutes, percent change from control
Text: Psychostimulant activity was examined through the locomotor activity test (LMA). The LMA is a behavioral test developed to predict the efficacy of psychostimulants. The LMA is an attractive test for psychostimulants because it is sensitive and specific. All of the major classes of psychostimulants enhance ambulatory activities in the LMA, including methylphenidate, amphetamine, and many other psychostimulants.
Sixteen (16) mice (3 weeks CrjBgi:CD-1 (ICR) and 8 weeks C57BL/6) were purchased from Orient Bio Inc. (Gyeonggi-do, Korea). The mice were divided into a control group and a drug-treated group (eight (8) mice per group) by a block randomization method. Each of the group was placed in an empty cage and bred under environmental conditions of 19-25° C. with a relative humidity of 40-60% and a lighting cycle of 12 hr light/12 hr dark. Diet and water were supplied ad libitum. After one week of acclimation, the LMA test was carried out. The mice were habituated for over 1 hour in an LMA room before starting the LMA test. After habituation, the test compounds (10 or 30 mg/kg) were administered to the drug-treated group by intraperitoneal injection. At 30 minutes after i.p. dosing, LMA was measured using automated photobeams, Opto-Varimax® (Columbus Instruments, Ohio, US) and recorded on a computer. The total locomoter counts for each mouse were recorded for 10 minutes.
Statistical mean values for control and drug-treated groups were calculated and the percent changes from control were determined.

T1 sequence (P23977 whole entry): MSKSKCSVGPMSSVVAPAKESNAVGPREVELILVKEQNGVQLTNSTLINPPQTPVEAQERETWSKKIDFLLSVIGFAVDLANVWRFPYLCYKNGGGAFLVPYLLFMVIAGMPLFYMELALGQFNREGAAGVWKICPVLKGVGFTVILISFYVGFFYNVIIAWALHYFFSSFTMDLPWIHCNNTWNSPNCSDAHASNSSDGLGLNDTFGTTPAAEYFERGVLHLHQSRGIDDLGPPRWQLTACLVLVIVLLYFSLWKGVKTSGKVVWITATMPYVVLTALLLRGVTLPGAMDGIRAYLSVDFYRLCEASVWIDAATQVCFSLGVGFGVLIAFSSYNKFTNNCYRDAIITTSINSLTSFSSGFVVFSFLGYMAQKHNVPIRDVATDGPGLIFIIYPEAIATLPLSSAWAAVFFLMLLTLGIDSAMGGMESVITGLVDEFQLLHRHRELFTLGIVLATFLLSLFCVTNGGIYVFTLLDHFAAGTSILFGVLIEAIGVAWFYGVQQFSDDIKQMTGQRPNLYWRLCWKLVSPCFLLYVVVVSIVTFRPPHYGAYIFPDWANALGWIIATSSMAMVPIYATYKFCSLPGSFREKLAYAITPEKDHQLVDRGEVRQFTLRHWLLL

| Structure (SMILES) | inhibition at 10 µM (dopamine transporter) | % ambulation (mice; 30 mg/kg) | % ambulation (mice; 10 mg/kg) |
| --- | --- | --- | --- |
| Cl.NC(=O)NC(=O)OC[C@H](N)Cc1ccccc1 [Example 2, (2R)-2-Amino-3-phenylpropyl (aminocarbonyl)carbamate] | 50.1% | 118.7% (30 mg/kg, ip) | – |
| CC(C)N[C@@H](COC(=O)NC(N)=O)Cc1ccccc1.Cl [Example 3, (2R)-2-(Isopropylamino)-3-phenylpropyl (aminocarbonyl)carbamate] | 40.1% | 291.5% (30 mg/kg, ip) | – |
| CN(C)[C@@H](COC(=O)NC(N)=O)Cc1ccccc1.Cl [Example 4, (2R)-2-(Dimethylamino)-3-phenylpropyl (aminocarbonyl)carbamate] | 38.4% | 242.6% (30 mg/kg, ip) | – |
| NC(=O)NC(=O)OC[C@H](N)Cc1ccc(Cl)cc1Cl [Example 6, (2R)-2-Amino-3-(2,4-dichlorophenyl)propyl (aminocarbonyl)carbamate] | 20.4% | – | – |
| NC(=O)NC(=O)OC[C@H](N)Cc1ccc(Cl)c(Cl)c1 [Example 7, (2R)-2-Amino-3-(3,4-dichlorophenyl)propyl (aminocarbonyl)carbamate] | 41.2% | – | – |
| CN(C(N)=O)C(=O)OC[C@H](N)Cc1ccccc1 [Example 8] | 20.3% | 186.4% (30 mg/kg, ip) | – |
| NC(=O)NC(=O)OCC(N)Cc1ccc(Cl)cc1 (stereo not shown) [Example 9] | 42.8% | – | – |
| CN[C@@H](COC(=O)NC(N)=O)Cc1ccccc1 [Example 14] | 35.9% | – | – |
| CN(C(N)=O)C(=O)OC[C@@H](Cc1ccccc1)N(C)C [Example 15] | 55.5% | – | 202.2% (10 mg/kg, ip) |
| NC(=O)N(Cc1ccccc1)C(=O)OC[C@H](N)Cc1ccccc1 [Example 16, (2R)-2-Amino-3-phenylpropyl (aminocarbonyl)benzylcarbamate] | 20.8% | – | – |
| CCN(C(N)=O)C(=O)OC[C@H](N)Cc1ccccc1 [Example 17, (2R)-2-Amino-3-phenylpropyl(aminocarbonyl)ethylcarbamate] | 41.2% | – | – |
| CN(C(N)=O)C(=O)OC[C@H](N)Cc1ccccc1Cl [Example 18] | 17.5% | – | – |
| CN(C(N)=O)C(=O)OC[C@H](N)Cc1ccc(F)cc1 [Example 19, 2-Amino-3-(4-fluorophenyl)propyl(aminocarbonyl)methylcarbamate] | 34.3% | – | – |
| CN(C(N)=O)C(=O)OC[C@H](N)Cc1ccc(Cl)cc1Cl [Example 21, (2R)-2-amino-3-(2,4-dichlorophenyl)propyl (aminocarbonyl) Methylcarbamate] | 31.5% | – | – |
| CN(C(N)=O)C(=O)OC[C@H](N)Cc1ccc(Cl)c(Cl)c1 [Example 22, (2R)-2-Amino-3-(3,4-dichlorophenyl)propyl (aminocarbonyl) Methylcarbamate] | 37% | – | – |
| CN(C(N)=O)C(=O)OCC(N)Cc1ccccc1 (stereo not shown) [Example 24] | 45% | – | – |
| N[C@@H](COC(=O)NC(=O)Nc1ccccc1)Cc1ccccc1 [Example 29, (2R)-2-Amino-3-phenylpropyl (anilinocarbonyl)carbamate] | 50.7% | – | – |
